Where two headings read alike, the source gives them in different places.
System: HSP47
Conditions: for % of Expression at Dose (nM) 18 nM / % of HSP47 expression in Stellate Cell, Conc siRNA 18 nM: siRNA 18 nM; for % of Expression at Dose (nM) 18 nM / % of Expression at Dose (nM) 75 nM / % of Expression at Dose (nM) 300 nM: rat stellate cells; for % of Expression at Dose (nM) 75 nM / % of HSP47 expression in Stellate Cell, Conc siRNA 75 nM: siRNA 75 nM; for % of Expression at Dose (nM) 300 nM / % of HSP47 expression in Stellate Cell, Conc siRNA 300 nM: siRNA 300 nM; for % of HSP47 expression in Stellate Cell, Conc siRNA 18 nM / % of HSP47 expression in Stellate Cell, Conc siRNA 75 nM / % of HSP47 expression in Stellate Cell, Conc siRNA 300 nM: Table 5, stellate cells
Method: The in vitro activity for gene expression knockdown using an siRNA was measured using rat stellate cells in DMEM medium according to the following protocol: One day before the transfection, plate the cells in a 96-well plate at 3×10^3 cells per well for Stellate cells with 100 μl of medium containing 10% FBS and culture in a 37° C. incubator containing a humidified atmosphere of 5% CO2 in air. Before transfection, change medium to 90 μl of medium without antibiotics. Prepare the appropriate dilutions of the solution collected from the tubing in PBS buffer so that the addition of 10 μl into each well is sufficient to reach the desired concentration. 48 hours after transfection, wash the cells once with ice-cold PBS. Lyse the cells with 50 μl of Cell-to-Ct Lysis Buffer for 5-30 minutes at ambient temperature. Add 5 μl of Stop Solution and incubate for 2 minutes at ambient temperature. Measure mRNA level by qPCR with TAQMAN immediately. Alternatively, the samples can be frozen at −80° C. and assayed at later times. For qRT-PCR assay: Thaw all reagents on ice. Mix the pooled reagents in 0.2 ml PCR tubes. Dispense the set-up mixture into 384 well plate, 10 μl/well×3. Seal the plate with film, spin down mixture into the bottom of wells. Perform qRT-PCR assay.
In this example, an HSP47 siRNA was used to knockdown HSP47 gene. For TaqMan gene expression assays, HSP47 gene specific TaqMan probe was used.

CCCCCCCCCCCCCC(=O)OCCN(CCOC(=O)CCCCCCCCCCCCC)C(=O)CCC(=O)NCCCC[C@H](NC(=O)CCC(=O)N(CCOC(=O)CCCCCCCCCCCCC)CCOC(=O)CCCCCCCCCCCCC)C(=O)NCCCOCCOCCOCCOCCOCCCNC(=O)[C@H](CCCCNC(=O)CCC(=O)N(CCOC(=O)CCCCCCCCCCCCC)CCOC(=O)CCCCCCCCCCCCC)NC(=O)CCC(=O)N(CCOC(=O)CCCCCCCCCCCCC)CCOC(=O)CCCCCCCCCCCCC [Compound T2]
% of Expression at Dose (nM) 18 nM (Table 3): 82% | % of Expression at Dose (nM) 75 nM (Table 3): 70% | % of Expression at Dose (nM) 300 nM (Table 3): 44%

CCCCC/C=C\C/C=C\CCCCCCCC(=O)OCCN(CCOC(=O)CCCCCCC/C=C\C/C=C\CCCCC)C(=O)CCC(=O)NCCCCC(NC(=O)CCC(=O)N(CCOC(=O)CCCCCCC/C=C\C/C=C\CCCCC)CCOC(=O)CCCCCCC/C=C\C/C=C\CCCCC)C(=O)NCCCOCCOCCOCCCNC(=O)C(CCCCNC(=O)CCC(=O)N(CCOC(=O)CCCCCCC/C=C\C/C=C\CCCCC)CCOC(=O)CCCCCCC/C=C\C/C=C\CCCCC)NC(=O)CCC(=O)N(CCOC(=O)CCCCCCC/C=C\C/C=C\CCCCC)CCOC(=O)CCCCCCC/C=C\C/C=C\CCCCC (stereo not drawn) [Compound T4]
% of Expression at Dose (nM) 18 nM (Table 3): 82% | % of Expression at Dose (nM) 75 nM (Table 3): 70% | % of Expression at Dose (nM) 300 nM (Table 3): 44% | % of Expression at Dose (nM) 18 nM (Table 4): 27% | % of Expression at Dose (nM) 75 nM (Table 4): 10% | % of Expression at Dose (nM) 300 nM (Table 4): 8%

CCCCC/C=C\C/C=C\CCCCCCCC(=O)OCCN(CCOC(=O)CCCCCCC/C=C\C/C=C\CCCCC)C(=O)CCCC(=O)NCCCC[C@H](NC(=O)CCCC(=O)N(CCOC(=O)CCCCCCC/C=C\C/C=C\CCCCC)CCOC(=O)CCCCCCC/C=C\C/C=C\CCCCC)C(=O)NCCCOCCOCCOCCOCCOCCCNC(=O)[C@H](CCCCNC(=O)CCCC(=O)N(CCOC(=O)CCCCCCC/C=C\C/C=C\CCCCC)CCOC(=O)CCCCCCC/C=C\C/C=C\CCCCC)NC(=O)CCCC(=O)N(CCOC(=O)CCCCCCC/C=C\C/C=C\CCCCC)CCOC(=O)CCCCCCC/C=C\C/C=C\CCCCC [Compound T5]
% of Expression at Dose (nM) 18 nM (Table 4): 29% | % of Expression at Dose (nM) 75 nM (Table 4): 13% | % of Expression at Dose (nM) 300 nM (Table 4): 11%

CCCCC/C=C\C/C=C\CCCCCCCC(=O)OCCN(CCOC(=O)CCCCCCC/C=C\C/C=C\CCCCC)C(=O)CCC(=O)NCCC[C@H](NC(=O)CCC(=O)N(CCOC(=O)CCCCCCC/C=C\C/C=C\CCCCC)CCOC(=O)CCCCCCC/C=C\C/C=C\CCCCC)C(=O)NCCCOCCOCCOCCOCCOCCCNC(=O)[C@H](CCCNC(=O)CCC(=O)N(CCOC(=O)CCCCCCC/C=C\C/C=C\CCCCC)CCOC(=O)CCCCCCC/C=C\C/C=C\CCCCC)NC(=O)CCC(=O)N(CCOC(=O)CCCCCCC/C=C\C/C=C\CCCCC)CCOC(=O)CCCCCCC/C=C\C/C=C\CCCCC [Compound T6]
% of Expression at Dose (nM) 18 nM (Table 4): 30% | % of Expression at Dose (nM) 75 nM (Table 4): 12% | % of Expression at Dose (nM) 300 nM (Table 4): 5%

CCCCC/C=C\C/C=C\CCCCCCCC(=O)OCCN(CCOC(=O)CCCCCCC/C=C\C/C=C\CCCCC)C(=O)CCC(=O)NC[C@H](NC(=O)CCC(=O)N(CCOC(=O)CCCCCCC/C=C\C/C=C\CCCCC)CCOC(=O)CCCCCCC/C=C\C/C=C\CCCCC)C(=O)NCCCOCCOCCOCCOCCOCCCNC(=O)[C@H](CNC(=O)CCC(=O)N(CCOC(=O)CCCCCCC/C=C\C/C=C\CCCCC)CCOC(=O)CCCCCCC/C=C\C/C=C\CCCCC)NC(=O)CCC(=O)N(CCOC(=O)CCCCCCC/C=C\C/C=C\CCCCC)CCOC(=O)CCCCCCC/C=C\C/C=C\CCCCC [Compound T7]
% of Expression at Dose (nM) 18 nM (Table 4): 51% | % of Expression at Dose (nM) 75 nM (Table 4): 20% | % of Expression at Dose (nM) 300 nM (Table 4): 8%

CC/C=C\C/C=C\C/C=C\CCCCCCCC(=O)OCCN(CCOC(=O)CCCCCCC/C=C\C/C=C\C/C=C\CC)C(=O)CCC(=O)NCCCC[C@H](NC(=O)CCC(=O)N(CCOC(=O)CCCCCCC/C=C\C/C=C\C/C=C\CC)CCOC(=O)CCCCCCC/C=C\C/C=C\C/C=C\CC)C(=O)NCCCOCCOCCOCCOCCOCCCNC(=O)[C@H](CCCCNC(=O)CCC(=O)N(CCOC(=O)CCCCCCC/C=C\C/C=C\C/C=C\CC)CCOC(=O)CCCCCCC/C=C\C/C=C\C/C=C\CC)NC(=O)CCC(=O)N(CCOC(=O)CCCCCCC/C=C\C/C=C\C/C=C\CC)CCOC(=O)CCCCCCC/C=C\C/C=C\C/C=C\CC [Compound T8]
% of Expression at Dose (nM) 18 nM (Table 4): 29% | % of Expression at Dose (nM) 75 nM (Table 4): 9% | % of Expression at Dose (nM) 300 nM (Table 4): 8%

CCC/C=C\C/C=C\CCCCCCCC(=O)OCCN(CCOC(=O)CCCCCCC/C=C\C/C=C\CCCCC)C(=O)CC[C@H](NC(=O)CCC(=O)NCCCOCCOCCOCCOCCOCCCNC(=O)CCC(=O)NC(CCC(=O)N(CCOC(=O)CCCCCCC/C=C\C/C=C\CCCCC)CCOC(=O)CCCCCCC/C=C\C/C=C\CCCCC)C(=O)N(CCOC(=O)CCCCCCC/C=C\C/C=C\CCC)CCOC(=O)CCCCCCC/C=C\C/C=C\CCCCC)C(=O)N(CCOC(=O)CCCCCCC/C=C\C/C=C\CCCCC)CCOC(=O)CCCCCCC/C=C\C/C=C\CCCCC (stereo partly drawn) [Compound T9]
% of Expression at Dose (nM) 18 nM (Table 4): 100% | % of Expression at Dose (nM) 75 nM (Table 4): 65% | % of Expression at Dose (nM) 300 nM (Table 4): 36%

CCCCC/C=C\C/C=C\CCCCCCCCOC(=O)[C@H]1C[C@H](NCC(=O)CCC(=O)NCCCCC(NC(=O)CCC(=O)N[C@H]2C[C@H](C(=O)OCCCCCCCC/C=C\C/C=C\CCCCC)N(C(=O)CCCCCCC/C=C\C/C=C\CCCCC)C2)C(=O)NCCCOCCOCCOCCOCCOCCCNC(=O)C(CCCCNC(=O)CCC(=O)N[C@@H]2C[C@@H](C(=O)OCCCCCCCC/C=C\C/C=C\CCCCC)N(C(=O)CCCCCCC/C=C\C/C=C\CCCCC)C2)NC(=O)CCC(=O)N[C@@H]2C[C@@H](C(=O)OCCCCCCCC/C=C\C/C=C\CCCCC)N(C(=O)CCCCCCC/C=C\C/C=C\CCCCC)C2)CN1C(=O)CCCCCCC/C=C\C/C=C\CCCCC (stereo partly drawn) [Compound T10]
% of HSP47 expression in Stellate Cell, Conc siRNA 18 nM: 11.1% | % of HSP47 expression in Stellate Cell, Conc siRNA 75 nM: 4.2% | % of HSP47 expression in Stellate Cell, Conc siRNA 300 nM: 1.9%

CCCCC/C=C\C/C=C\CCCCCCCC(=O)OCC(OC(=O)CCCCCCC/C=C\C/C=C\CCCCC)C1CCN(C(=O)CCC(=O)NCCCCC(NC(=O)CCC(=O)N2CCC(C(COC(=O)CCCCCCC/C=C\C/C=C\CCCCC)OC(=O)CCCCCCC/C=C\C/C=C\CCCCC)CC2)C(=O)NCCCOCCOCCOCCOCCOCCCNC(=O)C(CCCCNC(=O)CCC(=O)N2CCC(C(COC(=O)CCCCCCC/C=C\C/C=C\CCCCC)OC(=O)CCCCCCC/C=C\C/C=C\CCCCC)CC2)NC(=O)CCC(=O)N2CCC(C(COC(=O)CCCCCCC/C=C\C/C=C\CCCCC)OC(=O)CCCCCCC/C=C\C/C=C\CCCCC)CC2)CC1 (stereo not drawn) [Compound T11]
% of HSP47 expression in Stellate Cell, Conc siRNA 18 nM: 11.1% | % of HSP47 expression in Stellate Cell, Conc siRNA 75 nM: 4.5% | % of HSP47 expression in Stellate Cell, Conc siRNA 300 nM: 1.8%

CCCCC/C=C\C/C=C\CCCCCCCCOC(=O)[C@H](COC(=O)CCC(=O)NCCCCC(NC(=O)CCC(=O)OC[C@H](NC(=O)CCCCCCC/C=C\C/C=C\CCCCC)C(=O)OCCCCCCCC/C=C\C/C=C\CCCCC)C(=O)NCCCOCCOCCOCCOCCOCCCNC(=O)C(CCCNC(=O)CCC(=O)OC[C@@H](NC(=O)CCCCCCC/C=C\C/C=C\CCCCC)C(=O)OCCCCCCCC/C=C\C/C=C\CCCCC)NC(=O)CCC(=O)OC[C@@H](NC(=O)CCCCCCC/C=C\C/C=C\CCCCC)C(=O)OCCCCCCCC/C=C\C/C=C\CCCCC)NC(=O)CCCCCCC/C=C\C/C=C\CCCCC (stereo partly drawn) [Compound T12]
% of HSP47 expression in Stellate Cell, Conc siRNA 18 nM: 40.2% | % of HSP47 expression in Stellate Cell, Conc siRNA 75 nM: 8.4% | % of HSP47 expression in Stellate Cell, Conc siRNA 300 nM: 2.7%

CCCCC/C=C\C/C=C\CCCCCCCC(=O)OCCN(CCOC(=O)CCCCCCC/C=C\C/C=C\CCCCC)C(=O)CCC(=O)NCCCC[C@H](NC(C)=O)C(=O)NCCCOCCOCCOCCOCCOCCCNC(=O)[C@H](CCCCNC(=O)CCC(=O)N(CCOC(=O)CCCCCCC/C=C\C/C=C\CCCCC)CCOC(=O)CCCCCCC/C=C\C/C=C\CCCCC)NC(C)=O [Compound T13]
% of HSP47 expression in Stellate Cell, Conc siRNA 18 nM: 21.8% | % of HSP47 expression in Stellate Cell, Conc siRNA 75 nM: 6.4% | % of HSP47 expression in Stellate Cell, Conc siRNA 300 nM: 3.1%

CCCCC/C=C\C/C=C\CCCCCCCC(=O)OCCN(CCOC(=O)CCCCCCC/C=C\C/C=C\CCCCC)C(=O)CCC(=O)NC(CCCCNC(C)=O)C(=O)NCCCOCCOCCOCCOCCOCCCNC(=O)[C@H](CCCCNC(C)=O)NC(=O)CCC(=O)N(CCOC(=O)CCCCCCC/C=C\C/C=C\CCCCC)CCOC(=O)CCCCCCC/C=C\C/C=C\CCCCC (stereo partly drawn) [Compound T14]
% of HSP47 expression in Stellate Cell, Conc siRNA 18 nM: 103.3% | % of HSP47 expression in Stellate Cell, Conc siRNA 75 nM: 59.1% | % of HSP47 expression in Stellate Cell, Conc siRNA 300 nM: 5.2%
